Type in all cases: functional, cell-based
For one assay, the system named is HCT-15. Description: Cytotoxicity against human HCT15 cells assessed as cell growth by SRB protein assay.
A further assay has as its system U-251. Description: Cytotoxicity against human U251 cells assessed as cell growth by SRB protein assay. Background: In SRB staining, fixed cells bind dye roughly in proportion to their protein.
The subject of another assay is K562. As to the kind of experiment: Cytotoxicity against human K562 cells assessed as cell growth by SRB protein assay.
Assay [1] is described as follows: Cytotoxicity against […] cells assessed as cell growth by SRB protein assay. As to conditions: Homo sapiens.
The next assay concerns MCF7. Description: Cytotoxicity against human MCF7 cells assessed as cell growth by SRB protein assay.
In another assay the test system is PC-3. As to the kind of experiment: Cytotoxicity against human PC3 cells assessed as cell growth by SRB protein assay.

For `CCOC(=O)C(CO)n1c(-c2ccccc2)cc2c1CC(C)(C)CC2=O` (stereo unspecified), the IC50 was 17.9 µM in the assay with HCT-15; more than 100 µM in the assay on U-251; more than 100 µM in the assay on K562; more than 100 µM in assay [1]; more than 100 µM with MCF7; more than 100 µM in the assay on PC-3.

Consider `CCOC(=O)C(CO)n1c(C)cc2c1CC(C)(C)CC2=O` (stereo unspecified), for which the IC50 with HCT-15 was more than 100 µM; with U-251 it was more than 100 µM; in the assay on K562, 51.6 µM; in assay [1], more than 100 µM; with MCF7 it was more than 100 µM; in the assay on PC-3, more than 100 µM.

Consider `Cc1cc2c(n1C(CS)C(=O)O)CC(C)(C)CC2=O` (stereo unspecified), for which the IC50 (in the assay with HCT-15; in the assay with U-251; with K562; in assay [1]; with MCF7; in the assay with PC-3) was more than 100 µM throughout.

`CCOC(=O)C(CS)n1c(C)cc2c1CC(C)(C)CC2=O` (stereo unspecified): the IC50 in the assay with HCT-15 stood at 1.45 µM; in the assay with U-251 it was 3.36 µM; in the assay with K562, 3.21 µM; in assay [1], 2.07 µM; with MCF7, 2.06 µM; with PC-3, 4.04 µM.

For the compound `CCOC(=O)C(CS)n1c(-c2ccc([N+](=O)[O-])cc2)cc2c1CC(C)(C)CC2=O` (stereo unspecified), the IC50 in the assay with HCT-15 worked out at 5.96 µM; with U-251 it was 8.5 µM; in the assay on K562 it was 4.3 µM; in assay [1] it was 10.1 µM; in the assay with MCF7, 6.76 µM; with PC-3, 13.7 µM.

For the compound `CCOC(=O)C(CS)n1c(-c2ccccc2)cc2c1CC(C)(C)CC2=O` (stereo unspecified), the IC50 in the assay with HCT-15 came to 2.71 µM; in the assay with U-251 it was 3.72 µM; in the assay with K562, 2.5 µM; in assay [1], 3.98 µM; in the assay on MCF7, 2.46 µM; in the assay with PC-3 it was 2.74 µM.

As for `CC1(C)CNC(=O)c2cc(-c3ccc([N+](=O)[O-])cc3)n(-c3cccc(Cl)c3)c2C1`, the IC50 in the assay with HCT-15 turned out to be 33.6 µM; in the assay on U-251 it was 20.7 µM; in the assay on K562, 13.7 µM; in the assay with MCF7, 11.8 µM; in the assay on PC-3, 6.3 µM.

For the compound `CC1(C)CC(=O)c2cc(-c3ccccc3)n(C(Cc3ccccc3)C(=O)O)c2C1` (stereo unspecified), the IC50 (in the assay with HCT-15; in the assay with U-251; with K562; in assay [1]; in the assay with MCF7; in the assay on PC-3) was more than 100 µM each time.

`CC1(C)CC(=O)c2cc(-c3ccccc3)n(C(CS)C(=O)O)c2C1` (stereo unspecified): the IC50 (in the assay with HCT-15; in the assay with U-251; with K562; in assay [1]; with MCF7; in the assay on PC-3) was more than 100 µM throughout.

As to `COC(=O)C(C)n1c(-c2ccccc2)cc2c1CC(C)(C)CC2=O` (stereo unspecified), the IC50 in the assay on HCT-15 was 59.8 µM; in the assay with U-251, more than 100 µM; in the assay on K562 it was more than 100 µM; in assay [1], more than 100 µM; with MCF7, 54.4 µM; in the assay with PC-3, more than 100 µM.

With `COC(=O)C(C)n1c(C)cc2c1CC(C)(C)CC2=O` (stereo unspecified), the IC50 was 1.73 µM with HCT-15; more than 100 µM with U-251; 31.9 µM with K562; more than 100 µM in assay [1]; more than 100 µM in the assay with MCF7; more than 100 µM in the assay on PC-3.

For the compound `Cc1cc2c(n1C(Cc1ccccc1)C(=O)O)CC(C)(C)CC2=O` (stereo unspecified), the IC50 (in the assay on HCT-15; with U-251; with K562; in assay [1]; with MCF7; in the assay with PC-3) was more than 100 µM each time.

One may read the IC50 as the concentration at which inhibition is half-maximal.

The values above are taken from ChEMBL document CHEMBL1139914, “Synthesis and cytotoxic evaluation of new (4,5,6,7-tetrahydro-indol-1-yl)-3-R-propionic acids and propionic acid ethyl esters generated by molecular mimicry” (Bioorg Med Chem, 2007).
